The source of these data is US6376540B1, “Furan nitrone compounds” (Centaur Pharmaceuticals, Inc., priority 1996, dated 2002).

The target of one assay is T1, synthetic Aβ(1-40) (Homo sapiens, UniProt P05067).
T1 construct: 3 μL of Aβ(1-40)(3 μg) prepared with dH2O
Nature of the assay: Inhibition of Aβ(1-40) beta-pleated sheet formation (ThT fluorescence). It counts as biochemical. The note with it: 10 μM compound, ThT 3 μM, PBS pH 6.0, 12 hours; for inhibition at 10 µM: read-out: inhibition of Aβ(1-40) beta-pleated sheet formation compared to the controls. An excerpt:
The deposition of amyloid β-peptide (Aβ) is associated with the development of Alzheimer's disease. See, for example, G. G. Glenner et al. (1984) Biochem. Biophys. Res. Commun., 120:885-890; and R. E. Tanzi (1989) Ann. Med., 21:91-94. Accordingly, compounds which effectively disrupt the formation of Aβ(1-40) or Aβ(1-42) beta-pleated sheets are potentially useful for preventing and/or reversing such amyloid deposits. Thioflavin T (ThT) is known to rapidly associate with beta-pleated sheets, particularly the aggregated fibrils of synthetic Aβ(1-40). This association gives rise to a new excitation maximum at 440 nm and to enhanced emission at 490 nm.
The experiments were performed using a CytoFluor II fluorescence plate reader having the following parameters:
Into each well was aliquoted 95 μl of ThT (3 μM) prepared in PBS (pH 6.0), 2 μL of the compound to be tested (10 μM) prepared with 0.05% of methylcellulose in PBS (pH 6.0), and 3 μL of Aβ(1-40)(3 μg) prepared with dH2O (the compounds prepared in Examples 1, 3, 4, 5, 6, 7, 8, 9, 11 and 12 were tested). The fluorescence measurement began when the Aβ(1-40) was added and continued for a total of 12 hours. The percent inhibition of beta-pleated sheet formation was calculated from the relative fluorescence unit difference between aggregation in the presence and in the absence of the test compounds.

Assay [1] deals with primary neuronal/astrocyte cultures. Nature of the assay: Protection against Aβ(25-35)-induced neuronal cell loss. It counts as cell-based, Sprague Dawley rat. Conditions: 100 μM test compound, 30 μM Aβ(25-35), 96 hours. How it is done:
Patients with Alzheimer's disease are known to suffer a progressive loss of neuronal cells. See, for example, P. J. Whitehause et al., (1982) Science, 215:1237-1239. […] Sprague Dawley rat hippocampus of 18-day-gestation embryos was excised and then dissociated by trituration to prepare primary neuronal/astrocyte cultures. Cells (3×10^5) were plated on 35 mm poly-D-lysine-coated plates containing Eagle's minimum essential medium supplemented with 10% fetal bovine serum. After 3-5 hours, the original medium was removed and replaced with 1 mL of fresh medium. Cultures were maintained at 37° C. in a 5% CO2/95% air humidified incubator.
To the cells (7 DIV) was added 30 μM of Aβ(25-35) dissolved in dH2O (stored at −20° C.) and 100 μM of the test compound (i.e., a compound of Example 1, 3, 4, 5, 6, 7, 8, 12 or 13 above) in 1% methylcellulose. Controls were also conducted without the test compound. The percentage of morphologically viable neurons was determined counting the number of viable neurons after 96 hours treatment compared to the number of neurons before treatment in the same premarked culture regions (three regions/culture, n=6).

Another assay has as its system THP-1 cells. Nature of the assay: Reduction of β-amyloid-induced increased IL-1β release (ELISA). The class given is cell-based, human. The note with it: 100 μM test compound with LPS and Aβ25-35, 48 hours. Here is the method: THP-1 cells, a human monocyte cell line from American Type Culture Collection, were grown in RPMI-1640 medium plus 10% fetal bovine serum (FBS, not heat-inactivated) in T-flasks. The medium was changed every two days by spinning down (800 rpm, 5 minutes) the cells and added the same fresh medium. Alternatively, the cultures were maintained by the addition of fresh medium. The cultures were maintained at a cell concentration ranging from between 1×10^5 and 1×10^6 cells/mL. Because sera may contain unknown factors which can affect macrophage/monocyte IL-1 production, the FBS was reduced to 5% for 24 hours. The FBS was further reduced to 2% over two days prior to starting each experiment. The cells were collected by centrifugation and resuspended to 2% FBS. Cell numbers were calculated and cells were plated on 24-well plates (3×10^5 cells/0.6 mL/well). Cells were then treated with LPS (0.5 μg/ml or 0-10 μg/ml for LPS dose-response experiments) alone or in combination with Aβ peptides (5 μM or 0.05-5 μM for dose-response experiments). When determining the effect of the test compounds on cytokine release, 100 μM of the test compound was added with the LPS and Aβ25-35 and this mixture was incubated for 48 hours prior to performing ELISA.
IL-1β secretions into medium by LPS-stimulated THP-1 cells, in the presence or absence of amyloid peptides and a test compound, were assayed with a commercially available ELISA kit (R & D Systems). Briefly, a microtiter plate coated with a murine monoclonal antibody to human IL-1β was supplied by the manufacturer. Standards and samples were pipetted into the wells and any IL-1β present was bound by the immobilized antibody. Unbound proteins were washed away and a horseradish peroxidase-linked polyclonal antibody specific for IL-1β was added to the wells to “sandwich”the IL-1β bound in the initial step. […] Color development was stopped with 2 N sulfuric acid and the optical density of the standard and the test samples was measured at 450 nm. The amounts of IL-1β present in the samples were calculated based upon a standard curve. […]
In general terms: An ELISA detects its analyte on a solid surface through an enzyme-linked reagent.

The nature of assay [2]: Free radical trapping, DCF oxidation, ferrous iron system. Conditions: 100 μM test compound, 100 μM FeSO4, 50 μM DCF in MEM, 37° C., 2 hrs. It counts as biochemical. How it is done: (§1) Dichlorofluorescein (DCF) is a compound that fluoresces when oxidized by reactive oxygen species (ROS), such as hydroxyl, peroxyl, or alkoxyl free radicals. Test compounds were evaluated for their ability to scavenge radicals by determining their capacity to prevent the DCF oxidation in a radical generating environment. Two radical generating systems were used: (i) ferrous iron and (ii) tert-butyl hydroperoxide. When ferrous iron is placed in normoxic solution, it autooxidizes to produce ROS in the form of hydroxyl radicals, superoxide anion free radicals, and hydrogen peroxide. Similarly, when tert-butyl hydroperoxide is placed in non-chelated media, trace metals catalyze its oxidation to yield alkoxy, peroxyl, and alkyl free radicals.
(§2) In this assay, either 100 μM FeSO4 or 25 μM tert-butyl hydroperoxide were mixed with 50 μM DCF and 100 μM of the test compound in MEM and the mixture was incubated at 37° C. for 2 hrs. The fluorescence wavelengths measured were 485 nm for excitation and 530 nm for emission. In these tests, N-isopropyl-α-(2-sulfofuran-5-yl)nitrone sodium salt (prepared in Example 1 above) reduced fluorescence by 20% in the Fe^+2 assay and by 13% in the tert-butyl hydroperoxide assay. In comparison, a known free radical trap, N-tert-butyl-α-phenylnitrone (PBN) reduced fluorescence by 48% in the Fe^+2 assay and by 9% in the tert-butyl hydroperoxide assay.

Assay [3] can be described thus: Free radical trapping, DCF oxidation, tert-butyl hydroperoxide system. It counts as biochemical. Conditions: 100 μM test compound, 25 μM tert-butyl hydroperoxide, 50 μM DCF in MEM, 37° C., 2 hrs. Here is the method:
as §1, §2

T1 sequence (P05067 672-711 limits assumed): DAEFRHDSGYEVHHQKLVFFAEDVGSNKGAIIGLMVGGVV

For `CCCC[N+]([O-])=Cc1ccc(S(=O)(=O)O)o1` [Example 3, N-n-Butyl-α-(2-sulfofuran-5yl)nitrone], the “inhibition of Aβ(1-40) beta-pleated sheet formation compared to the controls” value (“inhibition … compared to the controls” below) on synthetic Aβ(1-40) is “did not significantly reduce”.

For `CC(C)(C)[N+]([O-])=Cc1ccc(S(=O)(=O)O)o1` [Example 4, N-tert-Butyl-α-(2-sulfofuran-5-yl)nitrone], the “inhibition … compared to the controls” value on synthetic Aβ(1-40) was “did not significantly reduce”. In addition, the “reduction of Aβ(25-35)-induced neuronal cell loss compared to the controls” value in assay [1] was “did not significantly reduce”.

Regarding `CCCCCC[N+]([O-])=Cc1ccc(S(=O)(=O)O)o1` [Example 5, N-n-Hexyl-α-(2-sulfofuran-5-yl)nitrone], on synthetic Aβ(1-40), the inhibition – broadly, the percentage by which the read-out fell short of the control – at 10 µM is 15 to 71%.

Regarding `O=S(=O)(O)c1ccc(C=[N+]([O-])C2CCCCC2)o1` [Example 6, N-Cyclohexyl-α-(2-sulfofuran-5-yl)nitrone], on synthetic Aβ(1-40), the inhibition at 10 µM lay within 15 to 71%.

As for `CC(C)(C)CC(C)(C)[N+]([O-])=Cc1ccc(S(=O)(=O)O)o1` [Example 7, N-tert-Octyl-α-(2-sulfofuran-5-yl)nitrone], the inhibition at 10 µM on synthetic Aβ(1-40) fell in the range of 15 to 71%.

On to `O=S(=O)(O)c1ccc(C=[N+]([O-])Cc2ccccc2)o1` [Example 9, N-Benzyl-α-(2-sulfofuran-5-yl)nitrone], for which the inhibition at 10 µM on synthetic Aβ(1-40) was 15 to 71%.

`CC(C)[N+]([O-])=Cc1ccc(S(=O)(=O)N2CCOCC2)o1` [Example 11, N-Isopropyl-α-[2-(N-morpholinosulfonyl)furan-5-yl]nitrone]: in the assay on THP-1 cells, the “reduction of the β-amyloid-induced increased release of interleukin-1β compared to the controls” value is listed as “did not significantly reduce”.

Regarding `CCN(CC)S(=O)(=O)c1ccc(C=[N+]([O-])C(C)C)o1` [Example 12, N-Isopropyl-α-[2-(N,N-diethylsulfamoyl)furan-5-yl]nitrone], on synthetic Aβ(1-40), the inhibition at 10 µM lay in the range of 15 to 71%.

For `CC(C)[N+]([O-])=Cc1ccc(S(=O)(=O)N2CCN(C)CC2)o1` [Example 14, N-Isopropyl-α-[2-(N-4-methylpiperazin-1-ylsulfonyl)furan-5-yl]nitrone], the “reduction of the β-amyloid-induced increased release of interleukin-1β compared to the controls” value in the assay with THP-1 cells is reported as “did not significantly reduce”.

Turning to `CC(C)[N+]([O-])=Cc1ccc(S(=O)(=O)N2CCN(C)CC2)o1.Cl` [Example 15, N-Isopropyl-α-[2-(N-4-methylpiperazin-1-ylsulfonyl)-furan-5-yl]nitrone Hydrochloride], the “reduction of the β-amyloid-induced increased release of interleukin-1β compared to the controls” value in the assay on THP-1 cells was “did not significantly reduce”.

Take `CC(C)(C)[N+]([O-])=Cc1ccccc1` [PBN, N-tert-butyl-α-phenylnitrone, reference compound]: the “reduced fluorescence in the Fe^+2 assay” value in assay [2] was determined as 48%. In addition, the “reduced fluorescence in the tert-butyl hydroperoxide assay” value in assay [3] came to 9%.

With “N-Adamantyl-α-(2-sulfofuran-5-yl)nitrone [Example 8]”, the “inhibition … compared to the controls” value against synthetic Aβ(1-40) is listed as “did not significantly reduce”.
